Measurements: ChEMBL document CHEMBL1201862, “PubChem BioAssay data set” (2004)
Activity calls are given as the source filed them.

Columns and labels:
Assay type in all cases: functional
Leucine aminopeptidase = target: T1, Leucine aminopeptidase (Plasmodium falciparum 3D7, UniProt Q8IL11); assay: P. falciparum M17LAP inhibitors, primary screen, biochemical, fluorogenic H-Leu-NHMec substrate, 1536-well (AID 1619)
T1 sequence (Q8IL11 whole entry): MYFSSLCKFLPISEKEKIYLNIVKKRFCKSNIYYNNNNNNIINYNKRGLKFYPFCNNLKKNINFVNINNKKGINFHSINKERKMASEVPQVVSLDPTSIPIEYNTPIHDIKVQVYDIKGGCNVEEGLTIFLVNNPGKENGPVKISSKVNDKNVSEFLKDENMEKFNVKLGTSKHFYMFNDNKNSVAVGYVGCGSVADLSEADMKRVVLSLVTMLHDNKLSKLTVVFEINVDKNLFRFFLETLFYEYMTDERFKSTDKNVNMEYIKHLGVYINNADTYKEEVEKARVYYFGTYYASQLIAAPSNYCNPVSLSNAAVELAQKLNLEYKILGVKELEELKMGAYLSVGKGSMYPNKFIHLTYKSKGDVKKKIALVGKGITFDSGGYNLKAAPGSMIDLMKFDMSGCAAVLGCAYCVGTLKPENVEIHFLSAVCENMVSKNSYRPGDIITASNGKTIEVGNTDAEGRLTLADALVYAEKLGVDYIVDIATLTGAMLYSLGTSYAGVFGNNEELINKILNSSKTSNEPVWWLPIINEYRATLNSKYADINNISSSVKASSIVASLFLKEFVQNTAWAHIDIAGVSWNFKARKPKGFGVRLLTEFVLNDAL

[1] = target: T2, Carboxy-terminal domain RNA polymerase II polypeptide A small phosphatase 1 (Homo sapiens, UniProt Q9GZU7); assay: inhibitors of CTDSP1, concentration-response testing, biochemical assay, absorbance-based, actives from ultra-high-throughput screening (AID 540297)
T2 sequence (Q9GZU7 whole entry): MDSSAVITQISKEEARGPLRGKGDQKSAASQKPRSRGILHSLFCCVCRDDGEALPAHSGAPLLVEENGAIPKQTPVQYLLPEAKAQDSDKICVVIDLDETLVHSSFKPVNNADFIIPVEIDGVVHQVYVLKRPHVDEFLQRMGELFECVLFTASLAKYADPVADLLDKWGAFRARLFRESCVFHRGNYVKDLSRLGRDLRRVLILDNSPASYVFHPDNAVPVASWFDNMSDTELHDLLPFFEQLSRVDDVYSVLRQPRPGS

[2] = A cytotoxicity screen of small molecule inhibitors of the PhoP region in Salmonella typhi identified in the primary screen. [Related pubchem assays: 1850, 1864, 1985 ]
[3] = microbe, parasite or virus in culture; conditions: Mycobacterium tuberculosis
Prothrombin = Prothrombin (Homo sapiens, UniProt P00734); assay: Thrombin 1536 HTS Dose Response Confirmation. [Related pubchem assays: 1046 (Thrombin 1536 HTS; hits were confirmed in this assay)]
P388/ADR = assay: cells; conditions: Mus musculus
SN12K1 = assay: cells; conditions: Homo sapiens
P388 = assay: cells; conditions: Mus musculus
Protein skinhead-1 = target: T3, Protein skinhead-1 (Caenorhabditis elegans, UniProt P34707)
T3 sequence (P34707 whole entry): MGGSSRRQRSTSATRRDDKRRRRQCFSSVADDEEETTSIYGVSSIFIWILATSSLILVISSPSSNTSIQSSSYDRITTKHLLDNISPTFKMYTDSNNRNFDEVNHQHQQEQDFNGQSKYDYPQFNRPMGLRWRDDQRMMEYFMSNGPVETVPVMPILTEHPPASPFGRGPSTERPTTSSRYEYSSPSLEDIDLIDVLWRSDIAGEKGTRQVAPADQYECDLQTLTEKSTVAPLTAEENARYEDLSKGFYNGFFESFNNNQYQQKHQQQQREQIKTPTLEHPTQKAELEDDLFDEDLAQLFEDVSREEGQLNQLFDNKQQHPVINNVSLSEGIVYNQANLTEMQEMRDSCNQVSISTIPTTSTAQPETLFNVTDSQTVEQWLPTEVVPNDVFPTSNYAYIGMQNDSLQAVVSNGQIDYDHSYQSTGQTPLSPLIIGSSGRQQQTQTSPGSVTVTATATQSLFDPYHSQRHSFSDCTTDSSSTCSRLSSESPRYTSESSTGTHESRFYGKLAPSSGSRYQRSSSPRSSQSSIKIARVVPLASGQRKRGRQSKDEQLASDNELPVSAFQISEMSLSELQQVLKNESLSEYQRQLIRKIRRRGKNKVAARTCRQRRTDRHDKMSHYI

## CCc1c(O)cc(=O)n(-c2ccccc2)c1-c1ccccc1
Leucine aminopeptidase
  IC50: 23.5 µM (active)

## CSc1ccc(/C=C(\C(=O)O)c2ccc(S(=O)(=O)N3CCCC3)s2)cc1
[1]
  IC50: 5.2 µM (active)

## CCOC(=O)N1CCN(CCC(=O)c2ccc(Br)cc2)CC1
[2]
  EC50: > 50 µM (active)

## N=C(NOC(=O)COc1ccc2ccccc2c1)c1ccccn1
[2]
  EC50: > 50 µM (active)

## O=C(CCn1c(=O)c2cccn2c2cccnc21)N1CCN(c2cccc(Cl)c2)CC1
[3]
  CC50: > 40 µM (active)

## O=C(O)CSCC(=O)NCc1cccc(C(F)(F)F)c1
Prothrombin
  IC50: > 50 µM (not active)

## NC(=NOC(=O)c1cccc([N+](=O)[O-])c1)c1cccc([N+](=O)[O-])c1
[1]
  IC50: 11.2 µM (active)

## Cc1c2cc[n+](C)cc2c(C)c2c1[nH]c1ccccc12
P388/ADR
  GI50: 55.5 µM (inactive)
SN12K1
  GI50: 0.416 µM (active)
P388
  GI50: 0.887 µM (active)

## CC(NCc1ccc(Cl)cc1)C(O)c1ccccc1 (stereo not given)
[2]
  EC50: > 50 µM (active)

## C=CCn1c(SCC(=O)NCc2ccc3c(c2)OCO3)nnc1C1COc2ccccc2O1 (stereo not given)
Leucine aminopeptidase
  IC50: < 1 µM (active)

## Cc1cc(NC(=O)Cc2ccsc2)ccc1Br
Protein skinhead-1
  IC50: > 100 µM (inactive)

## Brc1ccc(Oc2nnnn2-c2ccccc2)cc1
Protein skinhead-1
  IC50: 35.1 µM (active)

## Cc1c2c(cc3c1[nH]c1ccccc13)C(c1ccc(Cl)cc1)=NCC2
P388/ADR
  GI50: 0.428 µM (active)
SN12K1
  GI50: 0.284 µM (active)
P388
  GI50: 0.398 µM (active)

## O=C1Nc2ccc(S(=O)(=O)NCc3ccccn3)c3cccc1c23
[1]
  IC50: 8.42 µM (active)

## O=C(C1CCCCC1)N1CCN(S(=O)(=O)c2ccc(Cl)cc2)CC1
Protein skinhead-1
  IC50: > 100 µM (inactive)

## Cc1cccc(-n2ccnc2CN2CCN(C3CCCC3)C(CCO)C2)c1 (stereo not given)
[2]
  EC50: > 50 µM (active)

## O=C(CSc1nc(O)cc(-c2ccccc2)n1)Nc1ccccn1
Leucine aminopeptidase
  IC50: 8.69 µM (active)

## N/C(=N\O)N/N=C/c1cc2c(cc1Cl)OCO2
P388/ADR
  GI50: 23.7 µM (inactive)
SN12K1
  GI50: 31.3 µM (inactive)
P388
  GI50: 29.3 µM (inactive)

## O=C(Nc1ccc2[nH]c(-c3ccc(Br)o3)nc2c1)c1ccco1
[2]
  EC50: > 50 µM (active)
